Laboratory results published in patent publication US12673918B2, “Small molecule RPN13 inhibitors with antitumor properties” (The Johns Hopkins University, priority 2019, dated 2026).

How the values were obtained:
ES2-luc xenograft = test: ES2-luc intraperitoneal xenograft in nude mice; type: in vivo; settings: 10 mg/Kg every 3 days, total 12 doses
Procedure: ES2 is a human cell line derived from a high grade ovarian clear cell carcinoma (42). The efficacy of RA375 against the ES2 xenograft model expressing luciferase (ES2-luc) was tested. Nude female mice were inoculated with ES2-luc cells into the peritoneal cavity. After 3 days the mice were imaged for their basal luminescence activity and randomized into two groups (n=8). […] Mice were imaged after the first and second week of treatment for their luciferase activity to assess tumor burden.
Briefly, female nude mice were injected interperitoneally (i.p.) with ES2-luc cells (1×10^6) in 100 μL PBS and the basal luminescence was measured after three days using IVIS 200 imaging after injecting luciferin. […] Over the treatment period mice were imaged every week for bioluminescence to monitor tumor growth.
Tumor Studies: Female C57BL6 or Nude mice were inoculated with 10^6 ES2-Luciferase cells i.p. in 100 uL PBC, or ID8-VegfDefb29 syngeneic mouse model of ovarian cancer expressing luciferase (62) i.p. in 100 μL PBS. At day 3, mice were imaged for basal level luminescence activity with a Xenogen IVIS 200 after injection i.p. with luciferin (0.3 mg in 100 water). Mice were randomized into two groups (n=8) and treated i.p. with compounds or vehicle (25% (w/v) β-Hydroxypropylcyclodextrin in water), and imaged again on days 7 and 14. RA375 was administered i.p. at 10 mg/Kg.

OV2008 = test: MTT cytotoxicity assay, OV2008; settings: read-out: cytotoxicity IC50 OV2008
Procedure: (§1) Cell lines and cytotoxicity assays: All cell lines were obtained from the American Type Culture Collection (ATCC) and cultured in the specified medium supplemented with 10% fetal bovine serum, 100 IU/mL penicillin, and 100 μg/mL streptomycin at 37° C. in a humidified 5% CO2/95% air incubator. […] To assess drug cytotoxicity, cells were seeded at 2,500 cells/well (10,000 cells/well for MM lines) in 100 μL medium in 96-well plate and after 24 treated with compounds for 72 h, incubated according to the manufacturer's protocol with the Thiazolyl Blue Tetrazolium Bromide (Sigma, M2128) and A570 measured using a Benchmark Plus microplate spectrophotometer (BIO-RAD). IC50 data was analyzed by Graphpad Prism software. In the chirality studies the cells were treated with compounds for 48 h, and the cells were incubated and measured via the preceeding protocols.

[1] = tested on: proteasome (4UbFL reporter); test: 4UbFL reporter, ES2 cells stably expressing 4UbFL; type: cell-based, human; settings: ES2 stably expressing 4UbFL, 4 h
Excerpt: FIG. 14B illustrates fold increase in bioluminiscence of ES2 cells stably expressing 4UbFL at 4 hrs post-treatment of compounds, as measured by luminometer.
Next examined was the effect of compounds on proteasome function using a DNA construct that expresses a reporter gene comprising firefly luciferase fused to four molecules of ubiquitin (4UbFL) at its amino terminus (41). The 4UbFL is rapidly degraded by active proteasomes, resulting in a low level of enzymic activity and bioluminescence. Upon proteasome inhibition, increased 4UbFL activity can be measured by luminescence assay using luciferin as a substrate as the protein is stabilized.

ES2 cells = test: Seahorse mitochondrial stress test, ES2 cells; type: cell-based, human
Procedure: During the mitochondrial stress test, baseline OCR measurements were followed by the addition of the compound oligomycin to measure ATP-linked respiration. Upon addition of the uncoupler FCCP, maximal respiration is measured. […] At the end of the assay, a mix of rotenone and antimycin A was injected to provide a measure of non-mitochondrial respiration. […] To determine the impact of RA413S on glycolysis, ES2 cells were incubated in medium without glucose or pyruvate and the baseline ECAR was measured. Addition of glucose allows the measurement of the glycolysis rate. This was followed by the injection of oligomycin which inhibits mitochondrial ATP production and shifts the energy production to glycolysis. The consequent rise in ECAR measures the cellular maximum glycolytic capacity.
Seahorse Assay: For quantification of oxygen consumption rate, ES2 cells were seeded at 20,000 cells per well in Seahorse XF96 Analyzer plates in regular media and incubated at 37° C. with 5% CO2 overnight. […] The plate was then loaded into the Seahorse machine and readings of oxygen and pH levels were taken before and after injections of 3 μM oligomycin, 4 μM FCCP, 2 μM antimycin, and 2 μM rotenone. Oxygen consumption rate and extracellular acidification rate were analyzed using Wave 2.4 software.

MCF7 = settings: human
[2] = MTT cytotoxicity assay, RPE1; settings: human
Procedure: as §1

ID8 (murine) = test: MTT cytotoxicity assay, ID8; type: cell-based; settings: Mus musculus, 48 h, read-out: IC50 ID8 (murine)
C2KmFvB1 = test: MTT cytotoxicity assay, C2KmFvB1; settings: read-out: cytotoxicity IC50 C2KmFvB1, Tables 3A/4B/4C, BRCA2 + Ve
VU147T = test: MTT cytotoxicity assay, VU147T; type: cell-based; settings: Table 3, 48 hr, Head & Neck (HPV +ve)
Procedure: (§2) Cell lines and cytotoxicity assays: All cell lines were obtained from the American Type Culture Collection (ATCC) and cultured in the specified medium supplemented with 10% fetal bovine serum, 100 IU/mL penicillin, and 100 μg/mL streptomycin at 37° C. in a humidified 5% CO2/95% air incubator. […] To assess drug cytotoxicity, cells were seeded at 2,500 cells/well (10,000 cells/well for MM lines) in 100 μL medium in 96-well plate and after 24 treated with compounds for 72 h, incubated according to the manufacturer's protocol with the Thiazolyl Blue Tetrazolium Bromide (Sigma, M2128) and A570 measured using a Benchmark Plus microplate spectrophotometer (BIO-RAD). IC50 data was analyzed by Graphpad Prism software.

[3] = tested on: proteasome (4UbFL reporter); test: 4UbFL reporter in leg muscle of BALB/c mice; type: in vivo; settings: single i.p. administration to mice
Procedure: FIG. 9B illustrates BALB/c mice electroporated with 4UbFL plasmid (10 μg/mouse) in the leg muscle and the basal luminescence was recorded after 48 hr. Groups of mice (n=5) were treated with different compound (40 mg/Kg) or vehicle alone (25% (w/v) β-Hydroxypropylcyclodextrin in water). Mice were imaged for bioluminiscence activity using IVIS instrument at 4, 24, 48, 72 and 96 hr.
To test for proteasome inhibition by RA375 in vivo, an electroporation delivery was employed to transfect the leg muscle of mice with the 4UbFL reporter plasmid. […] At two days post electroporation of the 4UbFL DNA, mice were imaged, and base line luminescence recorded. […] After 4 h, 24 h, 48 h, 72 h and 96 h post treatment mice were again imaged, and bioluminescence was quantified.
Electroporation Method: A patch of CD1 or Balb/c mouse leg was shaved of hair and 10 μg 4Ub-FL plasmid in 20 μL of PBS was injected into the quadriceps femoralis muscle followed immediately by injection of the 2 Needle Array to 5 mm depth encompassing the injection site and square wave electroporation (ElectroSquarePorator 833, BTX-2 Needle array 5 mm gap, Harvard apparatus) delivered as eight pulses at 106V for 20 ms with 200 ms intervals. […] Equally sized areas were analyzed using Living Image 2.20 software. […]

HeLa cells = test: XTT cytotoxicity assay, HeLa; type: cell-based, human; settings: Homo sapiens, HeLa, read-out: IC50 HeLa
Excerpt: The impact of substituents of the aromatic ring on the potency of molecules was also examined. The presence of either an electron withdrawing group (EWG) or an electron donating group (EDG) influences the reactivity of a Michael acceptor towards the target protein but can also impact specificity/selectivity.

JHU11 = test: MTT cytotoxicity assay, JHU11; type: cell-based; settings: Table 3, 48 hr, Head & Neck (HPV −ve)
Procedure: (§3) The cytotoxic efficacy of selected compounds was assessed against multiple myeloma (MM) cell lines, as this is a validated clinical target for the licensed proteasome inhibitors.
as §1

JHU29 = test: MTT cytotoxicity assay, JHU29; type: cell-based; settings: Table 3, 48 hr, Head & Neck (HPV −ve)
Procedure: as §3, §1

Procedure for SKOV3: as §2

C[C@H]1/C(=C\c2ccc([N+](=O)[O-])cc2)C(=O)/C(=C/c2ccc([N+](=O)[O-])cc2)CN1C(=O)[C@@H](N)Cc1ccccc1
fold more cytotoxic than RA413R (SKOV3): 4 fold
survival (ES2-luc xenograft): significantly increased survival
tumor burden (bioluminescence) (ES2-luc xenograft): significantly reduced tumor burden
IC50 (OV2008): 0.04 µM
4UbFL bioluminescence [1]: increased bioluminescence in a dose dependent manner
decrease of ATP production (ES2 cells; ES2, 12 hr, 100 nM): ~4 fold
maximal respiration (ES2 cells; ES2, relative to vehicle or RA414-treated groups): significantly reduced
IC50 (MCF7): 0.25 µM

CC(C)C[C@H](NC(=O)[C@H](Cc1ccccc1)NC(=O)c1cnccn1)B(O)O [Bortezomib, bortezomib, reference compound]
IC50 ([2]; RPE1 cells): 0.0035 µM

N[C@@H](Cc1ccccc1)C(=O)N1C/C(=C\c2ccc([N+](=O)[O-])cc2)C(=O)/C(=C/c2ccc([N+](=O)[O-])cc2)C1 [RA183, reference compound]
IC50 (OV2008): 0.08 µM
IC50 (ID8 (murine)): 0.198 µM

N[C@@H](Cc1ccccc1)C(=O)N1C/C(=C\c2ccc(Cl)c(Cl)c2)C(=O)/C(=C/c2ccc(Cl)c(Cl)c2)C1 [RA190, reference compound]
IC50 (C2KmFvB1): 0.436 µM

O=C(CCl)N[C@@H](Cc1ccccc1)C(=O)N1C/C(=C\c2ccc([N+](=O)[O-])cc2)C(=O)/C(=C/c2ccc([N+](=O)[O-])cc2)C1 [RA375]
IC50 (VU147T): 0.04 µM
duration of proteasome inhibition in muscle [3]: > 72 h
IC50 (ID8 (murine)): 0.044 µM
IC50 (HeLa cells): 0.013 µM
IC50 (JHU11): 0.178 µM
IC50 (JHU29): 0.173 µM

CC1/C(=C\c2ccc([N+](=O)[O-])cc2)C(=O)/C(=C/c2ccc([N+](=O)[O-])cc2)CN1C(=O)[C@H](Cc1ccccc1)NC(=O)CCl (some centres unmarked) [RA414]
IC50 [2]: < 0.04 µM
4UbFL bioluminescence [1]: increased bioluminescence in a dose dependent manner
